Laboratory results from article PMC6011838, “Transcriptome analysis and anaerobic C4‐dicarboxylate transport in Actinobacillus succinogenes” (MicrobiologyOpen, 2017).

Target: T1, Asuc_1999 (Actinobacillus succinogenes, UniProt A6VQU8)
T1 construct: untagged gene in pBAD30 derivative pMB64, expressed in E. coli IMW529 (deficient in anaerobic fumarate transport); 555 amino acids; cell suspension uptake
Assay: […] uptake, filtration assay, E. coli cell suspension
Type: cell-based
Conditions: anaerobic; phosphate buffer pH 7, 1 mmol/L MgSO4; 37°C; 1 min uptake; 20 mmol/L lactose preincubation; labelled compound

SMILES | Km [µM]
O=C(O)/C=C/C(=O)O [fumarate] | 452
O=C(O)CCC(=O)O [succinate] | 364
